According to patent US5905089A, “Use of sesquiterpene lactones for treatment of severe inflammatory disorders” (Board of Supervisors of Louisiana State University and …, priority 1998, dated 1999):
Entries after “also recorded” stand apart in the source; their conditions may differ.

Assays:
ERK-1 = assay: Tyrosine phosphorylation of ERK-1 in RAW 264.7 cells (antiphosphotyrosine immunoblot); type: cell-based, murine; details: 3h pretreatment, LPS 1 μg/ml 30 min; FIG. 5A
Procedure: (§1) Rat (Sprague-Dawley) alveolar macrophages were collected by broncho-alveolar lavage as described by Lee et al., J. Biol. Chem., vol. 267, pp. 25934-25938 (1992). The murine macrophage cell line RAW 264.7 (ATCC no. TIB-71) was cultured in Dubecco's modified Eagle's medium (DMEM) containing 10% heat-inactivated fetal bovine serum (FBS, Intergen). For the cyclooxygenase activity assay, cells were seeded in 24 well plates, and after near-confluency, cells were treated with aspirin (250 μM) for 2.5h to inactivate endogenous cyclooxygenase. […] COX activity was determined by measuring prostaglandin E2 concentrations in cells incubated with arachidonic acid (30 μM) for 10 minutes as described in Lee et al. (1992).
This detection technique was carried out essentially as described in Chanmugan et al. (1995) using 4G10 monoclonal antiphosphotyrosine antibody (UBI) and the ECL detection system (Amersham).
(§2) Parthenolide suppressed LPS-stimulated tyrosine phosphorylation of various proteins in RAW 264.7 cells as assessed by antiphosphotyrosine immunoblot, depicted in FIG. 5A. This inhibition was correlated with the suppressed expression of COX-2 and IL-1α. […] Therefore, the extent of tyrosine phosphorylation of JNK-1 was assessed by the electrophoretic mobility shift of phosphorylated JNK-1 as shown in FIG. 5B. […]

IL-1α = IL-1α expression in LPS-stimulated RAW 264.7 cells (Western blot); type: cell-based, murine; details: LPS 1 μg/ml; FIG. 5D
Procedure: as §1
(§3) The protein levels of COX-2 and GAPDH were assessed by Western blot analysis using polyclonal antibodies as described in Lee et al. (1992). Polyclonal antibodies for IL-1α and JNK-1 were purchased from Genzyme and Santa Cruz Biotech, respectively.
(§4) Parthenolide suppressed LPS-stimulated tyrosine phosphorylation of various proteins in RAW 264.7 cells as assessed by antiphosphotyrosine immunoblot, depicted in FIG. 5A. This inhibition was correlated with the suppressed expression of COX-2 and IL-1α. RAW 264.7 cells were pretreated with parthenolide in various concentrations or with herbimycin A (0.5 μg/ml) for 3h, and then stimulated with LPS (1 μg/ml) in the presence of the inhibitors for 30 min. […] Therefore, the extent of tyrosine phosphorylation of JNK-1 was assessed by the electrophoretic mobility shift of phosphorylated JNK-1 as shown in FIG. 5B. Parthenolide inhibited tyrosine phosphorylation of JNK-1. Another protein tyrosine kinase inhibitor, herbimycin A ([…]), inhibited tyrosine phosphorylation of the MAPK subfamily.
(§5) The mechanism by which parthenolide inhibits protein tyrosine phosphorylation is not currently known. It has been speculated that the tyrosine kinase inhibitor herbimycin A inactivates p60^v-src kinase by irreversibly binding to the sulphydryl (SH) groups of p60^v-src kinase. Y. Uehara et al., Biochem. Biophys. Res. Commun., vol. 163, pp. 803-809 (1989). The inactivation by herbimycin may occur through conjugation between highly polarized double bonds in the benzoquinone moiety of herbimycin A and the SH group of sulphydryl compounds. Without wishing to be bound by this theory, the α-methylenebutyrolactone in parthenolide may interact with biological nucleophiles such as sulphydryl groups. Indeed, pretreating cells with sulphydryl compounds abrogated the inhibitory effect of parthenolide on LPS-induced activation of MAPKs as shown in FIG. 6A. […]

COX-2 [1] = assay: COX-2 expression in LPS-stimulated RAW 264.7 cells (Western blot); type: cell-based, murine; details: LPS 1 μg/ml; FIG. 5D
Procedure: as §1, §3, §4, §5

TNFα = assay: LPS-induced TNFα production in alveolar macrophages (bioassay using L929 cells); type: cell-based, Rat (Sprague-Dawley); details: LPS 10 μg/ml, 16h, FIG. 2
Procedure: as §1
(§6) Recovered COX activity in cells pretreated with aspirin reflected de novo synthesized COX-2. Alveolar macrophages pretreated with aspirin were incubated with LPS (10 μg/ml) and various concentrations of parthenolide for 16h. The activity of de novo synthesized COX-2 was determined by measuring the levels of PGE2 produced from exogenous arachidonic acid. Activity of TNFα was determined by bioassay using L929 cells as described by Aggarwal et al., J. Biol. Chem., vol. 260, pp. 2345-2354 (1985). […] Values in FIG. 2 are the means of triplicate samples for TNFα and duplicate samples for PGE2.

COX-2 [2] = assay: Inhibition of the expression of COX-2 in LPS-stimulated macrophages (Table 1); type: cell-based
Procedure: Rat (Sprague-Dawley) alveolar macrophages were collected by broncho-alveolar lavage as described by Lee et al., J. Biol. Chem., vol.
as §6, with “Alveolar” for “Recovered COX activity in cells pretreated with aspirin reflected de novo synthesized COX-2. Alveolar”, “vol.” for “vol. 260, pp. 2345-2354 (1985).”

COX-2 mRNA = assay: Steady state levels of COX-2 mRNA in LPS-stimulated alveolar macrophages (RNase protection assay); type: cell-based, Rat (Sprague-Dawley); details: 2h, FIG. 3B
Procedure: as §1
(§7) Total cellular RNA was isolated by TRIzoL reagent (Gibco, BRL). The RNase protection assay was performed as described in Chanmugan et al. (1995).
(§8) In FIG. 3B, alveolar macrophages were incubated with LPS in the presence of various concentrations of parthenolide for 2h. Steady state levels of mRNA were determined by RNase protection assay. In FIG. 4, alveolar macrophages were incubated with LPS in presence of 1 μg/ml of parthenolide for specified time periods. The concentrations of mRNA were determined by RNase protection assay.

[3] = tested on: c-Jun N-terminal kinase-1 (JNK-1); assay: Tyrosine phosphorylation of JNK-1 in RAW 264.7 cells (electrophoretic mobility shift immunoblot); type: cell-based, murine; details: 3h pretreatment, LPS 1 μg/ml 30 min; FIG. 5B
Procedure: as §1, §3, §2

TNFα mRNA = assay: Steady state levels of TNFα mRNA in LPS-stimulated alveolar macrophages (RNase protection assay); type: cell-based, Rat (Sprague-Dawley); details: FIG. 3B (2h) and FIG. 4 (parthenolide 1 μg/ml, time course)
Procedure: as §1, §7, §8

COX-2 [4] = assay: COX-2 protein expression in LPS-stimulated alveolar macrophages (immunoblot); type: cell-based, Rat (Sprague-Dawley); details: 16h, FIG. 3A
Procedure: as §1, §3
In FIG. 3A, alveolar macrophages were incubated with LPS and various concentrations of parthenolide for 16h. Solubilized proteins were analyzed by COX-2, IL-1α or GAPDH immunoblotting. FIG. 3A is a representative immunoblot of more than five different analyses. Data are shown for various concentrations of both parthenolide (PTN) and herbimycin A (HER). […]

## C=C1C(=O)O[C@H]2[C@H]1CC/C(C)=C/CC[C@@]1(C)O[C@@H]21 [Compound 1, Parthenolide]
ERK-1
  tyrosine phosphorylation of ERK-1: inhibited by parthenolide in a dose-dependent manner
IL-1α
  expression of IL-1α in RAW 264.7 cells: suppressed
COX-2 [1]
  expression of COX-2 in RAW 264.7 cells: suppressed
TNFα
  IC50, suppression of LPS-induced TNFα production: 0.1 µg/mL
COX-2 [2]; IC50 determined at multiple dose levels
  IC50, inhibiting the expression of COX-2: 0.2 µg/mL
COX-2 [2]; comparison among tested compounds
  inhibitory activity (COX-2 expression), in words: highest inhibitory activity
COX-2 mRNA
  steady state levels of COX-2 mRNA: dose-dependent inhibition; also recorded: suppression
[3]
  tyrosine phosphorylation of JNK-1: inhibited
TNFα mRNA
  steady state levels of mRNA for TNFα: inhibited
COX-2 [4]
  expression of COX-2 protein: dose-dependent inhibition
